# According to patent US20080275105A1, “Selective Muscle Relaxant and Pharmaceutical Compositions” (UNIVERSIDADE FEDERAL DO RIO DE JANEIROUFRJ, priority 2004, published 2008):
# System: rat papillary muscle
# Test: Isometric tension (electrically stimulated twitches) in papillary muscle
# Assay type: cell-based
# Conditions: 10 to 100 μM; not significant
# Method: Once the experiments have been carried out, the findings were subject to statistical analyses being expressed in average ±SEM as a percentage of the control value, and graphs were drawn up using the Sigma Plot 5.0 program to represent the data obtained. For the statistical analysis of the effects on the different muscle tissues, the difference was assessed among the concentrations of the same derivative, using the “t” Student test. In order to ascertain the difference among the derivatives, the one-way ANOVA test was used. The differences were considered as significant for p<0.05. The Cl50 was expressed as an average ±SEM of the values obtained for each experiment through non-linear regression based on the y=yo+ae^−bx equation.
# After anesthesia with ethyl ether, male Wistar rats weighing between 240-280 grams were sacrificed through cervical dislocation. The heart was removed rapidly and the papillary muscle and the ventricular bundles were dissected in Tyrode's solution, whose composition is given in Table 2 below, at room temperature. The muscles were placed in vertical chambers with a capacity of 10 mL and fixed at their extremities: the lower portion to a hook located in the stimulation electrode fixation rod and the upper portion connected to a power transducer (Grass FT03) for recording the muscle twitches.
# The muscles were stimulated electrically with supra-maximum voltage (50-60 V) through a stimulator (Grass S88) at a frequency of 1.0 Hz. The signals captured by the transducer were amplified (Cyberamp 380, Axon Instruments) and the isometric tension was digitized (Digidata 1322A, Axon Instruments) and stored on a computer. The screening and analysis of the experiment was handled through the Axoscope 8.0 program (Axon Instruments) (Sudo & cols., 2001). The chamber solution was bubbled continuously with a carbogenic mixture (95% O2/5% CO2) and kept at a temperature of 37° C.
# After the stabilization of the muscle twitches (approximately 30 min) the records were carried out in the absence (control) and presence of rising concentrations (10 to 100 μM) of the different L294 analogs, diluted in DMSO. The records were carried out in pairs (two papillary and two ventricle) thus allowing the control experiments to be carried out in one of the pairs, meaning with rising quantities of DMSO equivalent to those used to dilute the substances. The reversibility of the effect of the substances was investigated at the end of each experiment, noting the recovery of the muscle twitches after bathing the preparation with Tyrode's solution.
smiles,measurement,value
"CN(/N=C/c1cccs1)C(=O)c1ccc2c(c1)OCO2 [L785, 1,3-Benzodioxol-5-carboxylic acid, N-methyl-N′-[1-thiophene-2-yl-meth-(E)-ylidene]-hydrazide]",maximum alterations to the papillary muscle twitches,86.5±4.0 % of the control
